Measured values published in US4076821A (priority 1976, dated 1978).

Experiments:
in vivo = settings: mouse, po
animal or person = format: in vivo; settings: Rattus norvegicus, po, read-out: ED50, anti-apomorphine effect

O=C(CCCN1CCC(O)(c2ccc(Cl)cc2)CC1)c1ccc(F)cc1 [Haloperidol, 1-[3-(p-fluorobenzoyl)propyl]-4-(p-chlorophenyl)-4-piperidinol, reference compound]
LD50 (in vivo): > 100 mg/kg
ED50 (animal or person): 0.5 mg/kg

O=c1[nH]c2ccccc2n1C1CCN(CCCC(c2ccc(F)cc2)c2ccc(F)cc2)CC1 [Pimozide, 1-[1-(4,4-bis(p-fluorophenyl)butyl)-4-piperidyl]-2-benzimidazolinone, reference compound]
LD50 (in vivo): > 1000 mg/kg
ED50 (animal or person): 0.25 mg/kg

Cl.OC1(c2ccc(Cl)c(C(F)(F)F)c2)CCN(C2CCC(c3ccc(F)cc3)(c3ccc(F)cc3)CC2)CC1 [Test Compound A, 1-[4,4-bis(p-fluorophenyl)cyclohexyl]-4-(4-chloro-3-trifluoromethylphenyl)-4-piperidinol hydrochloride]
LD50 (in vivo): ≥ 464 mg/kg
ED50 (animal or person): 2.46 mg/kg

O=C1NCN(c2ccc(F)cc2)C12CCN(C1CCC(c3ccc(F)cc3)(c3ccc(F)cc3)CC1)CC2 [Test Compound B, 8-[4,4-bis(p-fluorophenyl)cyclohexyl]-1-(p-fluorophenyl)-1,3,8-triazaspiro[4.5]decan-4-one]
ED50 (animal or person): 0.1 mg/kg

O=C1NCN(c2ccc(Cl)cc2)C12CCN(C1CCC(c3ccc(F)cc3)(c3ccc(F)cc3)CC1)CC2 [Test Compound E, 8-[4,4-bis(p-fluorophenyl)cyclohexyl]-1-(p-chlorophenyl)-1,3,8-triazaspiro[4.5]decan-4-one]
LD50 (in vivo): ≥ 464 mg/kg
ED50 (animal or person): 0.28 mg/kg
